According to US4760136A, “Chartreusin derivatives and salts thereof” (Ishihara Sangyo Kaisha, Ltd., priority 1984, dated 1988):

Columns and labels:
P-388 leukemia cells = assay: Antitumor activity: P-388 leukemia cells inoculated intraperitoneally, drug administered intravenously, BDF1 mice; format: in vivo; conditions: Mus musculus, P388, iv, BDF1 mice, P-388 i.p., read-out: T/C (%) of MST; for response vs control in vivo at 40 mg/kg: dose c: 40 mg/kg × 3, i.v. on days 1, 5 and 9; for response vs control in vivo at 80 mg/kg: dose f: 80 mg/kg × 3, i.v. on days 1, 5 and 9; for response vs control in vivo at 20 mg/kg: dose b: 20 mg/kg × 3, i.v. on days 1, 5 and 9
How it was run: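 Drug dosing was intravenous on the first, fifth and ninth days after intraperitoneal inoculation of P-388 leukemia cells (1×10^6 per mouse) into BDF1 mice. Vehicles were physiological saline alone, or saline with small amounts of sodium carboxymethyl cellulose or Tween-80.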

[1] = Acute toxicity, intravenous (once), ddY mice; format: in vivo; conditions: mouse, in vivo, iv, formulated per Preparation Example
Text: In Table 7 are shown acute toxicity values (LD50, mg/kg) in ddY mice in the case of intravenously administering (once) each of the compounds of this invention in the form of preparations shown in the Preparation Examples shown in Table 7.

Row | SMILES | response vs control in vivo at 40 mg/kg (P-388 leukemia cells) [%] | response vs control in vivo at 80 mg/kg (P-388 leukemia cells) [%] | LD50 [1] [mg/kg] | response vs control in vivo at 20 mg/kg (P-388 leukemia cells) [%]
1 | COC1C(O)C(C)OC(OC2C(Oc3cccc4c(OC(=O)CCNC=O)c5c(=O)oc6ccc(C)c7c(=O)oc(c34)c5c67)OC(C)C3OC(c4cccc(Br)c4)OC32)C1O (centres unmarked) [Compound No. 54] | 144 | 208 | ≥ 80 | 
2 | COC1C(O)C(C)OC(OC2C(Oc3cccc4c(OC(=O)CCNC=O)c5c(=O)oc6ccc(C)c7c(=O)oc(c34)c5c67)OC(C)C3OC(c4cccc(F)c4)OC32)C1O (centres unmarked) [Compound No. 46] | 157 | 210 | ≥ 80 | 
3 | COC1C(O)C(C)OC(OC2C(Oc3cccc4c(OC(=O)CCN)c5c(=O)oc6ccc(C)c7c(=O)oc(c34)c5c67)OC(C)C3OC(c4cccc(F)c4)OC32)C1O (stereo not drawn) [Compound No. 16, 6-O-(β-alanyl)-3',4'-O-(m-fluorobenzylidene)-chartreusin phosphate] | 242 |  | ≥ 40 | 164
4 | COc1cccc(C(=O)Oc2c3cccc(O[C@@H]4O[C@H](C)[C@@H]5OC(CCc6ccccc6)O[C@@H]5[C@H]4O[C@H]4O[C@H](C)[C@H](O)[C@H](OC)[C@H]4O)c3c3oc(=O)c4c(C)ccc5oc(=O)c2c3c54)c1 (some centres unmarked) [compound 218] |  | 176 | ≥ 80 | 
5 | COC1C(O)C(C)OC(OC2C(Oc3cccc4c(OC(=O)CCNC(C)=O)c5c(=O)oc6ccc(C)c7c(=O)oc(c34)c5c67)OC(C)C3OC(c4ccccc4)OC32)C1O (centres unmarked) [Compound No. 38] |  |  | ≥ 40 | 203
6 | COC1C(O)C(C)OC(OC2C(Oc3cccc4c(OC(=O)CCNC=O)c5c(=O)oc6ccc(C)c7c(=O)oc(c34)c5c67)OC(C)C3OC(c4cccc(C(F)(F)F)c4)OC32)C1O (centres unmarked) [Compound No. 52] | 162 | 203 | ≥ 80 | 
7 | COC1C(O)C(C)OC(OC2C(Oc3cccc4c(OC(=O)C(C)CNC(=O)C(F)(F)F)c5c(=O)oc6ccc(C)c7c(=O)oc(c34)c5c67)OC(C)C3OC(c4cccc(C(F)(F)F)c4)OC32)C1O (centres unmarked) [Compound No. 30] | 171 | 257 | ≥ 80 | 
8 | C=CC(=O)Oc1c2cccc(O[C@@H]3O[C@H](C)[C@@H]4OC(C)(C)O[C@@H]4[C@H]3O[C@H]3O[C@H](C)[C@H](O)[C@H](OC)[C@H]3O)c2c2oc(=O)c3c(C)ccc4oc(=O)c1c2c43 [compound 197] | 144 | 171 | ≥ 80 | 
9 | CO[C@H]1[C@@H](O)[C@@H](C)O[C@H](O[C@H]2[C@H](Oc3cccc4c(OC(=O)CCCCl)c5c(=O)oc6ccc(C)c7c(=O)oc(c34)c5c67)O[C@H](C)[C@@H]3OC(C)(C)O[C@@H]32)[C@@H]1O [compound 204] | 174 |  | ≥ 60 | 
10 | COC1C(O)C(C)OC(OC2C(Oc3cccc4c(OC(=O)CCCCCBr)c5c(=O)oc6ccc(C)c7c(=O)oc(c34)c5c67)OC(C)C3OC(C)(C)OC32)C1O (centres unmarked) [compound 235] | 145 |  | ≥ 60 | 
11 | COC1C(O)C(C)OC(OC2C(Oc3cccc4c(OC(=O)C(Cc5ccccc5)NC(=O)OCc5ccccc5)c5c(=O)oc6ccc(C)c7c(=O)oc(c34)c5c67)OC(C)C3OC(c4ccc(Cl)cc4)OC32)C1O (centres unmarked) [compound 127] |  |  | ≥ 40 | 130
12 | COC1C(O)C(C)OC(OC2C(Oc3cccc4c(OC(=O)CCCCCNC(=O)C(F)(F)F)c5c(=O)oc6ccc(C)c7c(=O)oc(c34)c5c67)OC(C)C3OC(C)(C)OC32)C1O (centres unmarked) [compound 98] |  | 187 | ≥ 100 | 
13 | CC=CC=CC(=O)Oc1c2cccc(OC3OC(C)C4OC(C)(C)OC4C3OC3OC(C)C(O)C(OC)C3O)c2c2oc(=O)c3c(C)ccc4oc(=O)c1c2c43 (centres unmarked) [compound 238] | 130 | 192 | ≥ 80 | 
14 | C/C=C(\C)C(=O)Oc1c2cccc(OC3OC(C)C4OC(c5cccc(C(F)(F)F)c5)OC4C3OC3OC(C)C(O)C(OC)C3O)c2c2oc(=O)c3c(C)ccc4oc(=O)c1c2c43 (stereo not drawn) [Compound No. 161, 6-O-(Trans-2-Methyl-2-Butenoyl)-3',4'-O-(m-Trifluoromethylbenzylidene)Chartreusin] | 169 | 234 | ≥ 80 | 
15 | COC1C(O)C(C)OC(OC2C(Oc3cccc4c(OC(=O)CN(C)C(=O)C(F)(F)F)c5c(=O)oc6ccc(C)c7c(=O)oc(c34)c5c67)OC(C)C3OC(c4ccccc4)OC32)C1O (centres unmarked) [Compound No. 25] |  |  | ≥ 40 | 212
